{
  "source": "patent US4539322A",
  "about": "“Dihydropyridine derivatives and their use in treating heart conditions and hypertension” (Pfizer Inc., priority 1982, dated 1985)",
  "note": "pIC50: −log10 of the molar value. Structures can show the parent of a compound that is named as a salt.",
  "data": [
    {"test_system": "rat aorta", "experiment": "Inhibition of calcium-induced contraction of isolated rat aorta strips (reduction of response to added calcium chloride in K+-containing saline)", "format": "cell-based", "conditions": "0.75 h; spirally cut rat aorta strips, 45 millimolar potassium, calcium 2 millimolar, test repeated with compound after 45 minutes; read-out: molar concentration of the compounds required to reduce the response by 50% (IC50)", "protocol": "The ability of the compounds to inhibit the movement of calcium into the cell is shown by their effectiveness in reducing the response of isolated heart tissue to an increase in calcium ion concentration in vitro. The test is performed by mounting spirally cut strips of rat aorta with one end fixed and the other attached to a force transducer. The tissue is immersed in a bath of physiological saline solution containing potassium ion s at a concentration of 45 millimolar and no calcium. Calcium chloride is added to the bath with a pipette to give a final calcium ion concentration of 2 millimolar. The change in tension caused by the resulting contraction of the tissue is noted. The bath is drained and replaced with fresh saline solution and, after 45 minutes, the test is repeated with the particular compound under test present in the saline solution. The concentration of compound required to reduce the response by 50% is recorded.", "values": [
      {"smiles": "CCOC(=O)C1=C(COCCN2CCN(C(=O)[C@@H]3CCC(=O)N3)CC2)NC(C)=C(C(=O)OC)C1c1ccccc1Cl", "note": "(stereo partly drawn) [Example 54, 4-(2-chlorophenyl)-3-ethoxycarbonyl-5-methoxycarbonyl-6-methyl-2-[2-(4-[l-5-oxo-pyrrolidin-2-ylcarbonyl]-piperazin-1-yl)ethoxymethyl]-1,4-dihydropyridine, hydrochloride hydrate]", "pIC50": 8.52},
      {"smiles": "CCOC(=O)C1=C(COCCN2CCNCC2)NC(C)=C(C(=O)OC)C1c1ccccc1Cl", "note": "(centres unmarked) [Example 55, 4-(2-chlorophenyl)-3-ethoxycarbonyl-5-methoxycarbonyl-6-methyl-2-[2-(piperazin-1-yl)ethoxymethyl]-1,4-dihydropyridine]", "pIC50": 6.81},
      {"smiles": "CCOC(=O)C1=C(COCC(C)(C)N2CCNCC2)NC(C)=C(C(=O)OC)C1c1ccccc1Cl", "note": "(centres unmarked) [Example 56]", "pIC50": 6.47},
      {"smiles": "CCOC(=O)C1=C(COCC(C)N2CCNCC2)NC(C)=C(C(=O)OC)C1c1ccccc1Cl", "note": "(centres unmarked) [Example 57]", "pIC50": 6.65},
      {"smiles": "CCOC(=O)C1=C(COCCN2CCN(C(=N)NC(=O)NC(C)C)CC2)NC(C)=C(C(=O)OC)C1c1ccccc1Cl", "note": "(centres unmarked) [Example 64]", "pIC50": 7.85},
      {"smiles": "CCOC(=O)C1=C(COCCN2CCN(C(=N)NC(=O)OC)CC2)NC(C)=C(C(=O)OC)C1c1ccccc1Cl", "note": "(centres unmarked) [Example 65]", "pIC50": 8.09},
      {"smiles": "CCOC(=O)C1=C(COCCN2CCN(C(=NC(C)=O)NC(C)=O)CC2)NC(C)=C(C(=O)OC)C1c1ccccc1Cl", "note": "(centres unmarked) [Example 66]", "pIC50": 7.38},
      {"smiles": "CCOC(=O)C1=C(COCCN2CCN(C(=O)NC)CC2)NC(C)=C(C(=O)OC)C1c1cccc2ccccc12", "note": "(centres unmarked) [Example 70B, 3-Ethoxycarbonyl-5-methoxycarbonyl-6-methyl-2-{2-[4-(N-methylcarbamoyl)piperazin-1-yl]ethoxymethyl}4-(1-naphthyl)-1,4-dihydropyridine hydrate]", "pIC50": 7.05}
    ]}
  ]
}
